PMC10284601, “Evolution of an extreme hemoglobin phenotype contributed to the sub-Arctic specialization of extinct Steller’s sea cows” (eLife, 2023)

What was measured:
Assay in all cases: shift of O2 affinity (P50), thin-film O2 equilibrium curves
Conditions in all cases: allosteric effector of O2 binding; 0.5 mM DPG (twofold molar excess over tetramer) vs stripped Hb; no Cl-; 0.1 M HEPES, pH 7.2, 37 °C
[1] = molecular target: T1, Steller's sea cow Hb (H. gigas HbA; α2β/δ2) (Hydrodamalis gigas, UniProt A0A481WR13, N83K)
T1 construct: gene HBB; recombinant tetramer, E. coli JM109 (DE3) with co-expressed methionine aminopeptidase, codon-optimised, ion exchange purified; natural β/δ82Asn; with Hemoglobin subunit alpha
T1 sequence (A0A481WNT7 entry or part of it, stated change not applied): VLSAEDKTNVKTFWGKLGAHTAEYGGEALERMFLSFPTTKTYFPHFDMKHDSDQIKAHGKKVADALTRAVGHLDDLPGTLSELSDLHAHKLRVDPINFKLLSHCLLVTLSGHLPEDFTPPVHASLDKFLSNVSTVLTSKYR
T1 sequence (A0A481WR13 entry or part of it N83K): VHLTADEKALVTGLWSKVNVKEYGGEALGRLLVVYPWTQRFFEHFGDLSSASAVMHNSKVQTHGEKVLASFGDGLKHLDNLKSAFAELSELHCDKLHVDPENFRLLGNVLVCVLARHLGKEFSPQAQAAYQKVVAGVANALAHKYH

[2] = molecular target: T2, dugong Hb (HbA; α2β/δ2) (Dugong dugon, UniProt A0A481WQB0)
T2 construct: gene HBB; recombinant tetramer, E. coli JM109 (DE3) with co-expressed methionine aminopeptidase, codon-optimised, ion exchange purified; with Hemoglobin subunit alpha
T2 sequence (A0A481WNF4 entry or part of it): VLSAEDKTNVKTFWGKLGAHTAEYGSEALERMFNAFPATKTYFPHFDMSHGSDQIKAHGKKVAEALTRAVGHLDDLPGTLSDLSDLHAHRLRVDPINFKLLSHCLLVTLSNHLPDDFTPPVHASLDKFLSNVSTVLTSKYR
T2 sequence (A0A481WQB0 entry or part of it): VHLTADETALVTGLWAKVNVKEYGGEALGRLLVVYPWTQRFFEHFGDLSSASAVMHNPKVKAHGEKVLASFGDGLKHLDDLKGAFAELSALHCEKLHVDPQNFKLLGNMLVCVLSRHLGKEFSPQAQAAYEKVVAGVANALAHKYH

[3] = molecular target: T3, Steller's sea cow Hb (H. gigas HbA; α2β/δ2) (Hydrodamalis gigas, UniProt A0A481WR13)
T3 construct: gene HBB; recombinant tetramer, E. coli JM109 (DE3) with co-expressed methionine aminopeptidase, codon-optimised, ion exchange purified; natural β/δ82Asn; with Hemoglobin subunit alpha
T3 sequence (A0A481WR13 entry or part of it): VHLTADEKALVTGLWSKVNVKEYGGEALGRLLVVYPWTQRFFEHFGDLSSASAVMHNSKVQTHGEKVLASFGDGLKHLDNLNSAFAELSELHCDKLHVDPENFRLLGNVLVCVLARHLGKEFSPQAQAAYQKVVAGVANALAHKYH
T3 sequence (A0A481WNT7 entry or part of it, further chain): as the sequence (A0A481WNT7 entry or part of it, stated change not applied) above

O=C(O)[C@@H](COP(=O)(O)O)OP(=O)(O)O [2,3-diphosphoglycerate]
ΔlogP50(DPG-stripped) [1]: reversion to the ancestral state restores the DPG effect to the same level | ΔlogP50(DPG-stripped) [2]: 0.30 log units (P50 in mm Hg) | ΔlogP50(DPG-stripped) [3]: 0.02 log units (P50 in mm Hg)
